Assay results published in publication PMC4835225 (Chembiochem : a European journal of chemical biology, 2015).

Target: hENO1 (Homo sapiens, UniProt P06733)
Experiment: isothermal titration calorimetry
Assay type: binding
Conditions: stoichiometry 1.4-1.6 molecules of 1 per hENO1

hENO1, sequence (P06733 2-434): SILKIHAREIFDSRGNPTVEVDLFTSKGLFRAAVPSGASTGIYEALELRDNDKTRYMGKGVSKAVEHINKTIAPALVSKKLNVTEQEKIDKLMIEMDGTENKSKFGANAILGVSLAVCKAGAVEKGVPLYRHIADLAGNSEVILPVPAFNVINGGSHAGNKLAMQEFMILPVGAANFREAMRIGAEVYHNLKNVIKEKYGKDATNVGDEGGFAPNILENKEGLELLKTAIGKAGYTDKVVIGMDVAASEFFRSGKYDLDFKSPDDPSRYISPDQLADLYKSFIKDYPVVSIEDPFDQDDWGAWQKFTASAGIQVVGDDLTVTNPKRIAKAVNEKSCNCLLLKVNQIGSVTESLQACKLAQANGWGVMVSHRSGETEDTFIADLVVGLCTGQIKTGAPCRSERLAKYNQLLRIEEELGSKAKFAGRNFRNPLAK

Kd: 1900 ± 900 nM
Structure (SMILES): O=C1c2c(cc(O)c([C@@H]3CCc4cc(Cl)c(Cl)n43)c2O)-c2cc(Cl)c(Cl)n21 [compound 1, (-)-chlorizidine A]
